molecular target: T1, EHMT2 (Homo sapiens, UniProt Q96KQ7); assay: MDA-MB-231 H3K9me2 in-cell Western assay (EHMT2 ICW); type: cell-based; conditions: H3K9me2 in-cell Western, MDA-MB-231 cells; read-out: EHMT2 ICW (IC50 μM)
T1 construct: host or cells: MDA-MB-231
T1 sequence (Q96KQ7 1-1210): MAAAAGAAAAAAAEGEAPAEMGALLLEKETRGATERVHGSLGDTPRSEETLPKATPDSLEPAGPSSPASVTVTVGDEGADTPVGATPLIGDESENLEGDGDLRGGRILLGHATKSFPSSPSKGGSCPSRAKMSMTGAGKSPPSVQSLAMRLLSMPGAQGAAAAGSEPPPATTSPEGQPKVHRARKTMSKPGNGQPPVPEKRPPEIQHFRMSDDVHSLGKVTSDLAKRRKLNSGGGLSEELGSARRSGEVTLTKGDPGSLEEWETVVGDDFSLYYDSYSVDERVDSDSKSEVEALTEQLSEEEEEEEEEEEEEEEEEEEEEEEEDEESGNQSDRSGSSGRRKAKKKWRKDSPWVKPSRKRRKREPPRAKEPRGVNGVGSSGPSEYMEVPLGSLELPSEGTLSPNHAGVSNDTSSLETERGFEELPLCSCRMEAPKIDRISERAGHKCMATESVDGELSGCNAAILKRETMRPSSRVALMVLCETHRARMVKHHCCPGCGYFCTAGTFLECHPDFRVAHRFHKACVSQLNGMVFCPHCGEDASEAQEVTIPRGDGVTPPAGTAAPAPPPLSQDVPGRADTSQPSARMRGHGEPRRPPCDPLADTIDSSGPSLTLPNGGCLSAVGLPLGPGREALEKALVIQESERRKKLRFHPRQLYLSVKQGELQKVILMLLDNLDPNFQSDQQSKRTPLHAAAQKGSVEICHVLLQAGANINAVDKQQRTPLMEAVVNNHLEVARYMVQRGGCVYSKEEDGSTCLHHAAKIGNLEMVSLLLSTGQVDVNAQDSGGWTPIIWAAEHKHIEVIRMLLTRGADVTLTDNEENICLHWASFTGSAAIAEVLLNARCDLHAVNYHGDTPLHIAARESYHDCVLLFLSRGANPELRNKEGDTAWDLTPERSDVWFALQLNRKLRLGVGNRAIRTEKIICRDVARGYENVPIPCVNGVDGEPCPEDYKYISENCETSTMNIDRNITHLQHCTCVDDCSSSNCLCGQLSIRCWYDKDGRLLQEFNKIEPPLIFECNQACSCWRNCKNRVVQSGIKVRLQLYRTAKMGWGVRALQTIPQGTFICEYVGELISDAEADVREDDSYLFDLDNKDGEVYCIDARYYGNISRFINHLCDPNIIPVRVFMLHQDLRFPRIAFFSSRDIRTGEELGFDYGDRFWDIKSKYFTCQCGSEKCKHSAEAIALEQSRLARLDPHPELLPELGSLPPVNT
In short: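 Infrared read-out at 800 and 700 nm (H3K9me2 antibody vs DRAQ5 DNA stain) of fixed MDA-MB-231 cells after 48 h compound treatment at 37 °C. Well ratios were converted to percent inhibition, and IC50 was obtained by variable-slope nonlinear regression on triplicates.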

Row | SMILES | IC50
1 | CNc1cc(C)nc(Nc2ccc(OC)c(OCC3CCN(C4CCCC4)C3)c2)n1 (centres unmarked) [Compound 456, N^2-(3-((1-cyclopentylpyrrolidin-3-yl)methoxy)-4-methoxyphenyl)-N^4,6-dimethylpyrimidine-2,4-diamine] | > 10 µM
2 | CNc1nc(C2CC(C)(C)NC(C)(C)C2)c2cc(OC)c(OCCCN3CCCC3)cc2n1 [Compound 534] | > 10 µM
3 | CNc1ccnc(Nc2ccc(OC)c(OCc3ncn(C4CC4)n3)c2)n1 [Compound 480] | > 10 µM
4 | CNc1cc(C)nc(Nc2ccc(OC)c(OC3CCN(C)CC3)c2)n1 [Compound 455] | > 10 µM
5 | COc1cc2c(C3CCN(C)CC3)nc(N3CCC(F)(F)CC3)nc2cc1OCCCN1CCCC1 [Compound 528] | 1 to 10 µM
6 | CNc1nc(C2CCNCC2)c2cc(OC)c(OCCCN3CCCC3)cc2n1 [Compound 520] | 1 to 10 µM
7 | CNc1cc(C)nc(Nc2ccc(OC)c(OCCCCN(C)C)c2)n1 [Compound 502] | 1 to 10 µM
8 | CNc1cc(C)nc(Nc2ccc(OC)c(OCCCN3CCC4(CC4)C3)c2)n1 [Compound 498, N^2-(3-(3-(5-azaspiro[2.4]heptan-5-yl)propoxy)-4-methoxyphenyl)-N^4,6-dimethylpyrimidine-2,4-diamine] | 1 to 10 µM
9 | CNc1nc(C2CCN(C(C)=O)CC2)c2cc(OC)c(OCCCN3CCCC3)cc2n1 [Compound 519] | > 10 µM
10 | CNc1cc(C)nc(Nc2ccc(OC)c(OC(C#N)CCN3CCCC3)c2)n1 (centres unmarked) [Compound 489] | 1 to 10 µM
11 | CNc1cc(C2CCCC2)nc(Nc2ccc(OC)c(OCCCN3CCCC3)c2)n1 [Compound 458, 6-cyclopentyl-N^2-(4-methoxy-3-(3-(pyrrolidin-1-yl)propoxy)phenyl)-N^4-methylpyrimidine-2,4-diamine] | 1 to 10 µM

The next lines start with the values.

Row | IC50 | SMILES
12 | 0.1 to 1 µM | COc1cc2c(C3CCN(C)CC3)nc(N3CCCC3)nc2cc1OCCCN1CCCC1 [Compound 527]
13 | 0.1 to 1 µM | COc1cnc(Nc2nccc3[nH]ccc23)cc1OCCCN1CC2CC2C1 (centres unmarked) [Compound 507]
14 | 0.1 to 1 µM | CNc1cc(C)nc(Nc2ccc(OC)c(OC[C@H]3CCCN(C4CC4)C3)c2)n1 [Compound 517b]
15 | 1 to 10 µM | CNc1nc(C2CCOCC2)c2cc(OC)c(OCCCN3CCCC3)cc2n1 [Compound 521]
16 | 0.1 to 1 µM | COc1ccc(Nc2nc(C)cc(NCC3CCOCC3)n2)cc1OCC1CCN(C2CC2)C1 (centres unmarked) [Compound 462, N^2-(3-((1-cyclopropylpyrrolidin-3-yl)methoxy)-4-methoxyphenyl)-6-methyl-N^4-((tetrahydro-2H-pyran-4-yl)methyl)pyrimidine-2,4-diamine]
17 | < 0.1 µM | COc1cnc(Nc2nc(C)cc3[nH]ccc23)cc1OCC1CCN(C2CC2)C1 (centres unmarked) [Compound 494]
18 | 0.1 to 1 µM | CNc1nc(C2CCN(C(C)C)CC2)c2cc(OC)c(OC[C@@H]3CCN(C4CC4)C3)cc2n1 [Compound 526]
19 | < 0.1 µM | CNc1cc(C2CCN(C)CC2)c2cc(OC)c(OCCCN3CCCC3)cc2n1 [Compound 535]
20 | 0.1 to 1 µM | CNc1cc(C)nc(Nc2ccc(OC)c(OCC3CN(C4CC4)C3)c2)n1 [Compound 510]
21 | 0.1 to 1 µM | COc1cnc(Nc2nc(C)cc3[nH]c(C)cc23)cc1OCCCN1CCCC1 [Compound 485]

same assay, conditions: Table VII; read-out: EHMT2 ICW IC50

Row | IC50 | SMILES
22 | 0.1 to 1 µM | CNc1cc(C)nc(Nc2cnc(OC)c(CNCCN3CCC3)c2)n1 [Compound 1110]
23 | 0.1 to 1 µM | CNc1cc(C2CCOCC2)c2cc(OC)c(CNCCN3CCCC3)cc2n1 [Compound 1111]
24 | 0.1 to 1 µM | CNc1cc(C2CCOCC2)c2cc(OC)c(OC[C@H](O)CN3CCC3)cc2n1 [Compound 1108]
25 | 1 to 10 µM | CNc1ccnc(Nc2ccc(OC)c(OC[C@@H](O)CN3CCC3)c2)n1 [Compound 1046]
26 | 1 to 10 µM | CCN(C)C[C@@H](O)COc1cc(Nc2nc(C)cc(NC)n2)ccc1OC [Compound 1113]

Source: patent US20210198277A1, “AMINE-SUBSTITUTED ARYL OR HETEROARYL COMPOUNDS” (Epizyme, Inc., priority 2016, published 2021)
